How the values were obtained:
[1] = Compound was tested for inhibitory activity against alpha-Fucosidase obtained from Bovine kidney
[2] = Compound was tested for inhibitory activity against alpha-Fucosidase obtained from Bovine epididymis
[3] = Compound was tested for inhibitory activity against alpha-1,2-Fucosidase obtained from Arthrobacter oxidans F1

## CC1NC(C#N)(CO)C(O)C(O)C1O (centres undefined) [3,4,5-Trihydroxy-2-hydroxymethyl-6-methyl-piperidine-2-carbonitrile]
[1]
  IC50: 75 nM
[2]
  IC50: 110 nM
[3]
  IC50: 122 nM

## CC1NC(CO)(CNC(=O)CN)C(O)C(O)C1O (centres undefined) [2-Amino-N-(3,4,5-trihydroxy-2-hydroxymethyl-6-methyl-piperidin-2-ylmethyl)-acetamide]
[1]
  IC50: 50 nM
[2]
  IC50: 170 nM
[3]
  IC50: 116 nM

## CC1NC(CN)(CO)C(O)C(O)C1O (centres undefined) [2-Aminomethyl-2-hydroxymethyl-6-methyl-piperidine-3,4,5-triol]
[1]
  IC50: 206 nM
[2]
  IC50: 160 nM
[3]
  IC50: 80 nM

— BindingDB's records for doi:10.1016/s0960-894x(98)00617-9 (Scripps Research Institute, 1999)
